According to patent publication US20080090827A1 (Artesian Therapeutics, Inc., priority 2004, published 2008):

Columns and labels:
[1] = biological target: Human platelet cyclic AMP phosphodiesterase (PDE3) (Homo sapiens, UniProt Q14432); test: In vitro assay for measuring cAMP PDE-3 inhibitory activity; type: biochemical; settings: 10 min at 30° C., n=3
Procedure: Three assays each were performed for each of five test compound concentrations, the mean of the determinations (n=3) at each concentration was plotted, and IC50 values were determined graphically.

[2] = biological target: T1, human recombinant beta-1 receptors expressed in CHO-REX16 cells (Homo sapiens, UniProt P08588); test: Radioligand binding for β1-receptor affinity ([125I](−)Iodocyanopindolol); settings: at a concentration of 100 nM; read-out: inhibition of β1-adrenergic binding
T1 construct: expressed in transfected cells; host or cells: CHO-REX16 cells
Procedure: β1-Adrenergic receptor binding was measured in human recombinant beta-1 receptors expressed in CHO-REX16 cells, using [^125I] (−) Iodocyanopindolol (2000 Ci/mmol) as the radioligand, as described in Kalaria et al., J. Neurochem. 53: 1772-81 (1998), and Minneman et al., Mol. Pharmacol. 16: 34-46 (1979). Compounds 17d, 21, 31b, 46a, and 46b each inhibited greater than 25% β1-adrenergic binding at a concentration of 100 nM.

[3] = biological target: T2, human recombinant beta-2 receptors expressed in CHO-WT21 cells (Homo sapiens, UniProt P07550); test: Radioligand binding for β2-receptor affinity ([125I](−)Iodocyanopindolol); settings: at a concentration of 100 nM, read-out: inhibition of β1-adrenergic binding (as printed, β2-receptor assay)
T2 construct: expressed in transfected cells; host or cells: CHO-WT21 cells
Procedure: β2-Adrenergic receptor binding was measured in human recombinant beta-2 receptors expressed in CHO-WT21 cells, using [^125I] (−) Iodocyanopindolol (2000 Ci/mmol) as the radioligand, as described in Kalaria et al. (1998) and Minneman et al. (1979), supra. Compounds 17d, 21, 31b, 46a, and 46b each inhibited greater than 25% β1-adrenergic binding at a concentration of 100 nM.

T1 sequence (P08588 whole entry): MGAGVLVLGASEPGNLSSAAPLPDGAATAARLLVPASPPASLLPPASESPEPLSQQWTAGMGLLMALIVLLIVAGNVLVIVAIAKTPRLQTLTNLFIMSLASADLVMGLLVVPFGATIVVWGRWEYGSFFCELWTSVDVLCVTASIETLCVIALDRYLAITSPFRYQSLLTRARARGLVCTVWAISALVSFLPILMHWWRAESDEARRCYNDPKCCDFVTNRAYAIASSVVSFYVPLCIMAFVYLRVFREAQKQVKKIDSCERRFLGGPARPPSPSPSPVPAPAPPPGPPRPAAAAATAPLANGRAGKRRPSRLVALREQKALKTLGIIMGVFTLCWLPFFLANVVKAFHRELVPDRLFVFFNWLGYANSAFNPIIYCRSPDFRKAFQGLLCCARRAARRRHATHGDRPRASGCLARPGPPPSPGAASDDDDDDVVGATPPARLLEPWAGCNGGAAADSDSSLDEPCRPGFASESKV
Chain of Human platelet cyclic AMP phosphodiesterase (PDE3) (Q14432 whole entry): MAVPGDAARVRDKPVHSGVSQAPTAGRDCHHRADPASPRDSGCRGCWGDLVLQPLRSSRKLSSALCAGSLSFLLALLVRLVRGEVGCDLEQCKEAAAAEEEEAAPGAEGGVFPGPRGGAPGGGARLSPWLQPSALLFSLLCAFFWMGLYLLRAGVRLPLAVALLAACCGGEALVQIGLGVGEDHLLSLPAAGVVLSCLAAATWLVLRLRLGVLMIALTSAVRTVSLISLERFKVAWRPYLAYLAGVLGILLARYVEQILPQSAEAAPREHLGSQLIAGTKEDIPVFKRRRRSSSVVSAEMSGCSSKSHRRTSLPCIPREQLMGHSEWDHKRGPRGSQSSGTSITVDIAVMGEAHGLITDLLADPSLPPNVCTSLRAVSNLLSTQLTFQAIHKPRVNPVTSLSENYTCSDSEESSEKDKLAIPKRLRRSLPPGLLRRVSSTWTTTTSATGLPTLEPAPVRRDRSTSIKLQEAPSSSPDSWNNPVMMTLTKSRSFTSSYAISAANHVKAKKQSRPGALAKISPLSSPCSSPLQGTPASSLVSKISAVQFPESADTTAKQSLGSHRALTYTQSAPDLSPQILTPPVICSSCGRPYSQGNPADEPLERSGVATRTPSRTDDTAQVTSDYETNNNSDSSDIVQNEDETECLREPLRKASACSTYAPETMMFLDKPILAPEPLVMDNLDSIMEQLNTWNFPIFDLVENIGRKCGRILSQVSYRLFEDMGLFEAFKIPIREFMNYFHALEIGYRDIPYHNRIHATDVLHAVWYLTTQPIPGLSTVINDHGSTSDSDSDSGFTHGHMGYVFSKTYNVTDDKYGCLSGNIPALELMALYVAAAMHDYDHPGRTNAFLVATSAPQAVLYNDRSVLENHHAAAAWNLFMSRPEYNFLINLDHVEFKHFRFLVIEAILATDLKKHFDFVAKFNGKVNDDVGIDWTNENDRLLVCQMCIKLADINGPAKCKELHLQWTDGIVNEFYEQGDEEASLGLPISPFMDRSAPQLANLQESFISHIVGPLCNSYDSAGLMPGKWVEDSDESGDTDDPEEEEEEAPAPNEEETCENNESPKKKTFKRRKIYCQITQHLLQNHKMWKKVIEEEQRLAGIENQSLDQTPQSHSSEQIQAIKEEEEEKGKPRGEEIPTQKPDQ
T2 sequence (P07550 whole entry): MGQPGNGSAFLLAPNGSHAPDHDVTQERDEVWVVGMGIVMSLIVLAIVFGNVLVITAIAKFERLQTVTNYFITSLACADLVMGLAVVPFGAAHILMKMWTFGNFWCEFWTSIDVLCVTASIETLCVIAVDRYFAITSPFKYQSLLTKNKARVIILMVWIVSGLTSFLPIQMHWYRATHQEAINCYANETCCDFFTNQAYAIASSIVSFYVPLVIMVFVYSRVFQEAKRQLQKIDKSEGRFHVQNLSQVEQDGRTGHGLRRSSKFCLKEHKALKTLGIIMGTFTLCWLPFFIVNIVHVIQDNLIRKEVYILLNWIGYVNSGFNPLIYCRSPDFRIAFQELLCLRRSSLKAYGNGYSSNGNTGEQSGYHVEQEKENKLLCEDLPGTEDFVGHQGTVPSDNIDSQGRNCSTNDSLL

SMILES	IC50 [1]	inhibition at 0.1 µM [2]	inhibition at 0.1 µM [3]
CC(C)NCC(O)COc1ccc(CCNC(=O)COc2ccc(C3=NNC(=O)CC3)cc2Cl)cc1 (stereo not shown) [Compound 17c, 2-[2-Chloro-4-(6-oxo-1,4,5,6-tetrahydro-pyridazin-3-yl)-phenoxy]-N-{2-[4-(2-hydroxy-3-isopropylamino-propoxy)-phenyl]-ethyl}-acetamide]	< 100 nM	–	–
CC(C)NC[C@H](O)COc1ccc(C(=O)NCCNC(=O)COc2ccc(C3=NNC(=O)CC3)cc2Cl)cc1 [Compound 12a]	< 1000 nM	–	–
CC(C)NC[C@H](O)COc1ccc(CCC(=O)NCCNC(=O)COc2ccc(C3=NNC(=O)CC3)cc2Cl)cc1 [Compound 7]	< 100 nM	–	–
CC(C)(C)NC[C@H](O)COc1ccc(CCNC(=O)COc2ccc(C3=NNC(=O)CC3)cc2)cc1 [Compound 21, N-{2-[4-((S)-3-tert-butylamino-2-hydroxy-propoxy)-phenyl]-ethyl}-2-[4-(6-oxo-1,4,5,6-tetrahydro-pyridazin-3-yl)-phenoxy]-acetamide]	< 1000 nM	> 25%	> 25%
CC(C)NCC(O)COc1ccc(CNC(=O)COc2ccc(C3=NNC(=O)CC3)cc2Cl)cc1 (stereo not shown) [Compound 17a, 2-[2-Chloro-4-(6-oxo-1,4,5,6-tetrahydro-pyridazin-3-yl)-phenoxy]-N-[4-(2-hydroxy-3-isopropylamino-propoxy)-benzyl]-acetamide]	< 1000 nM	–	–
CC(C)(C)NCC(O)COc1ccc(CCNC(=O)COc2ccc(C3=NNC(=O)CC3)cc2Cl)cc1 (stereo not shown) [Compound 17d, N-{2-[4-(3-tert-Butylamino-2-hydroxy-propoxy)-phenyl]-ethyl}-2-[2-chloro-4-(6-oxo-1,4,5,6-tetrahydro-pyridazin-3-yl)-phenoxy]-acetamide]	< 100 nM	> 25%	> 25%
CC(C)(C)NC[C@H](O)COc1ccc(C(=O)NCCNC(=O)COc2ccc(C3=NNC(=O)CC3)cc2Cl)cc1 [Compound 13, 4-((S)-3-tert-Butylamino-2-hydroxy-propoxy)-N-(2-{2-[2-chloro-4-(6-oxo-1,4,5,6-tetrahydropyridazin-3-yl)-phenoxy]-acetylamino}-ethyl)-benzamide]	< 1000 nM	–	–
CC(C)NC[C@H](O)COc1ccc(CC(=O)NCCNC(=O)COc2ccc(C3=NNC(=O)CC3)cc2Cl)cc1 [Compound 12b, N-(2-{2-[2-Chloro-4-(6-oxo-1,4,5,6-tetrahydropyridazin-3-yl)-phenoxy]-acetylamino}-ethyl)-2-(4-((S)-2-hydroxy-3-isopropylamino-propoxy)-phenyl]-acetamide]	< 100 nM	–	–
CC(C)(C)NCC(O)COc1ccc(CNC(=O)COc2ccc(C3=NNC(=O)CC3)cc2Cl)cc1 (stereo not shown) [Compound 17b, N-[4-(3-tert-Butylamino-2-hydroxy-propoxy)-benzyl]-2-[2-chloro-4-(6-oxo-1,4,5,6-tetrahydro-pyridazin-3-yl)-phenoxy]-acetamide]	< 1000 nM	–	–

Further lines, results first:

IC50 [1]	inhibition at 0.1 µM [2]	inhibition at 0.1 µM [3]	SMILES
< 100 nM	–	–	CC(C)(C)NCC(O)COc1ccc(CCOc2ccc(C3=NNC(=O)CC3)cc2Cl)cc1 (stereo not shown) [Compound 37b, 6-(4-{2-[4-(3-tert-Butylamino-2-hydroxy-propoxy)-phenyl]-ethoxy}-3-chloro-phenyl)-4,5-dihydro-2H-pyridazin-3-one]
< 1000 nM	–	–	CC(C)NCC(O)COc1ccc(COCCCOc2ccc(C3=NNC(=O)CC3)cc2Cl)cc1 (stereo not shown) [Compound 31a, 6-(3-Chloro-4-{3-[4-(2-hydroxy-3-isopropylamino-propoxy)-benzyloxy]-propoxy}-phenyl)-4,5-dihydro-2H-pyridazin-3-one]
< 100 nM	–	–	CC(C)NCC(O)COc1ccc(CCOc2ccc(C3=NNC(=O)CC3)cc2Cl)cc1 (stereo not shown) [Compound 37a, 6-(3-Chloro-4-{2-[4-(2-hydroxy-3-isopropylamino-propoxy)-phenyl]-ethoxy}-phenyl)-4,5-dihydro-2H-pyridazin-3-one]
< 100 nM	> 25%	> 25%	CC(C)(C)NC[C@H](O)COc1ccc(CCOCCCOc2ccc(C3=NNC(=O)CC3)cc2Cl)cc1 [Compound 46b, 6-[4-(3-{2-[4-((S)-3-tert-Butylamino-2-hydroxy-propoxy)-phenyl]-ethoxy}-propoxy)-3-chloro-phenyl]-4,5-dihydro-2H-pyridazin-3-one]
< 100 nM	> 25%	> 25%	CC(C)NC[C@H](O)COc1ccc(CCOCCCOc2ccc(C3=NNC(=O)CC3)cc2Cl)cc1 [Compound 46a, 6-[3-Chloro-4-(3-{2-[4-((S)-2-hydroxy-3-isopropylamino-propoxy)-phenyl]-ethoxy}-propoxy)-phenyl]-4,5-dihydro-2H-pyridazin-3-one]
< 100 nM	> 25%	> 25%	CC(C)(C)NCC(O)COc1ccc(COCCCOc2ccc(C3=NNC(=O)CC3)cc2Cl)cc1 (stereo not shown) [Compound 31b, 6-(4-{3-[4-(3-tert-Butylamino-2-hydroxy-propoxy)-benzyloxy]-propoxy}-3-chloro-phenyl)-4,5-dihydro-2H-pyridazin-3-one]
